Test results as given in patent US6723830B2, “Short peptides which selectively modulate the activity of protein kinases” (Children's Medical Center Corporation, priority 1998, dated 2004).
* marks the point of attachment. Myristoyl = CCCCCCCCCCCCCC(=O)*

Key:
B16 melanoma cells = test: Induction of melanogenesis in B16 melanoma cells, observed by eye; type: cell-based, mouse; settings: 5 days incubation; increase in black pigment seen by eye; FIG. 7
Procedure: B16 melanoma cells (a mouse tumor cell line) were cultured in a 24-well plate, 10^5 cells/well, in the presence of various concentrations of K085D102, a Jak2-derived peptide from the αD region. After 5 days incubation in DMEM+10% fetal calf serum under standard conditions, the plate was observed by eye for melanogenesis. Melanogenesis induction was visualized by an increase in the amount of the black pigment in the well. The results are illustrated in FIG. 7 and clearly show a dose response down to a concentration as low as 0.15 μM of the Jak2 peptide of the αD region present in the well.

[1] = Appetite suppression: food intake and body weight in mice; type: in vivo; settings: C57BL mice
Procedure: Male CB6F1 or C57BL mice (Harlan), about 2-4 months old, were fed a pelleted rodent maintenance diet (Koffolk, Tel Aviv, Israel, 19520). The food containers for each group were weighed daily and the average food consumption was calculated per mouse per day.
During the experimental period, the mice were injected intraperitoneally once a day for two consecutive days, 4 mg/mouse, with K085D102 (a Jak2-derived peptide from the αD region) solubilized in 10% DMSO in PBS+0.1% BSA in a volume of 0.2 ml. The control groups were injected with 0.2 ml of the vehicle only.
FIGS. 4 and 5 illustrate the results obtained with CB6F1 mice while Table II summarizes the results obtained with C57BL mice.

[2] = test system: Human endothelial cells (HEC cells); test: Proliferation of human endothelial cells (methylene blue cell count); type: cell-based; settings: concentration at which significant inhibition of cell proliferation was observed; 72-80 hours incubation
Procedure: (§1) Human endothelial cells (referred to herein as “HEC cells”) are the cell line described by Schweitzer et al., Laboratory Investigation 76(1):25 (1997). Human prostate cancer cells (PC3) were obtained by the procedures disclosed in Arbiser et al., Proc. Natl. Acad. Sci. 94:861 (1997), the teachings of which are incorporated herein by reference.
(§2) 96 well, flat bottom, tissue culture microtiter plates were pre-coated with gelatin (Difco) immediately prior to cell plating by adding 0.100 ml/well of freshly filtered 1% gelatin in glass double distilled water (DDW). The wells were incubated for about 1 hour at 37° C., and then the excess solution was removed by aspiration.
(§3) Culture medium was prepared from DMEM, penicillin/streptomycin/glutamine (penicillin—100 U/ml; streptomycin—100 μμg/mL; and glutamine—2 mM) and 10% endotoxin free bovine calf serum (Hyclone). A suspension of the cell type being tested at 25×10^3 cells/ml was prepared in the above described culture medium and distributed 0.160 ml/well (about 4000 endothelial cells/well).
(§4) A series of αD peptide stock solutions was prepared by diluting a 10 mM solution of the αD peptide in 100% DMSO with phosphate buffered saline (PBS) containing 0.1% BSA. […]
(§5) The wells were washed one time with borate buffer (0.1 M, pH 8.5). […] After extracting overnight, the O.D. was read at 630 nm to determine the number of cells per well. […]

[3] = test system: Human prostate cancer cells (PC3); test: Proliferation of human prostate cancer cells PC3 (methylene blue cell count); type: cell-based; settings: concentration at which significant inhibition of cell proliferation was observed; 72-80 hours incubation
Procedure: as §1, §2, §3, §4, §5

CD4+ T cells = test: Th1/Th2 bioassay: IL-4 and IFNγ secretion by ELISA; type: cell-based, Balb/c mice; settings: CD4+ T cells incubated 5 days with 0.4, 2 or 10 μM peptide; 24 hour re-stimulation; FIG. 6
Procedure: 0.5×10^6 small resting CD4+ T cells were isolated from lymph nodes of 8 week-old Balb/c mice. These CD4+ T cells were incubated for 5 days in 2 ml culture medium in 24 well plates coated with anti-CD3 and anti-CD28 antibodies: (5 μg/ml and 2 μg/ml, respectively). 0.4, 2 or 10 μM Jak-derived peptides, initially in 10 μl DMSO, were present in the medium during the 5 day activation period. Control wells contained 10 μl of DMSO (the solvent of the peptide).
At the end of the 5 day stimulation period, the medium was replaced with fresh medium containing 10 u/ml IL-2 and the cells were removed from the antibody-coated wells to uncoated wells for a 3 day “rest” and expansion period. Under these stimulating and rest conditions, the differentiation process led to the acquisition of Th2 phenotype (high IL-4 and low IFNγ production upon secondary challenge).
At the end of the rest period, the cells were removed, washed and counted. 0.5×10^6 cells were re-stimulated in 1 ml of culture medium by incubation for 24 hours on anti-CD3-+anti-CD28-coated 24 well plates. At the end of the 24 hour re-stimulation period, the supernatant was removed and the level of secreted IL-4 and IFNγ was determined by ELISA. The results were expressed as u/ml or pg/ml of IL-4 and IFNγ respectively, which were secreted into the culture medium by 0.5×10^6 cells during the re-stimulation period.

fresh adipocytes = test: Glucose uptake (3H-deoxy glucose) by adipose tissue cells; type: cell-based, rats; settings: 10 μM peptide
Procedure: To 3 ml of buffer with 10 mg collagenase, 3 g epididymal fat pad (from 2-3 male rats) was introduced. The fat was cut up with scissors. The pieces of fat were swirled and shaken in a 37° C. water bath set at 100-150 repetitions/minute for approximately 1 hour with swirling every 15 minutes while digesting and every 5 minutes towards the end. About 6 ml of buffer was added to the vial.
A 250μ nylon mesh over the top was secured with a rubber band and the contents of the container were gently squeezed into a 50 ml plastic tube. The total volume for each wash was 15 ml.
The tube was centrifuged. The adipose cells floated to the top of the liquid. The buffer was removed using a 35 ml metal-tipped syringe with a needle. Buffer was added to 15 ml and the clumps of cells were gently broken up by mixing up and down in the syringe. This process was repeated for a total of 4 centrifugations at 1000 with the last centrifugation at 2000 rpm. At this point, any fat was removed from the top of the cells.
Buffer and dilute cell suspension with buffer were removed to cytocrit of 5-10%. The cells were kept at 37° C. for 1 hour.
500 μl buffer was added with or without additives (insulin 10-10,000 μU/ml, peptides 0.1-10 μM) to 10 ml plastic tubes.
500 μl aliquots of the cell suspension were added to the tubes.
After incubation for 30 minutes at 37° C. in a shaking water bath (approximately 300 strokes/minute), 200 μl of buffer containing 3H—Deoxy Glucose (approx. 1200 cpm/μl) was added to each tube.
After 30 minutes incubation with 3H-DOG at 37° C., 200 μl aliquots were transferred to microcentrifuge tubes containing 200 μl Dinonyl phthalate. Cells were rapidly separated from the aqueous buffer by centrifugation at 10,000 g for 30-60 sec. Cells separated in the top layer from the aqueous buffer by Dinonyl phthalate.
Cell associated radioactivity was counted in a liquid scintillation counter.
Glucose-uptake was measured in fresh adipocytes, incubated with or without insulin (10 μU) as described above, in the absence (control) or the presence of 10 μM of peptide K094D101 (derived from the αD region of IRK).

[4] = 4 mg/mouse intraperitoneally once a day for two consecutive days, treatment day 1
[5] = 4 mg/mouse intraperitoneally once a day for two consecutive days, treatment day 2
[6] = recovery after two days of treatment

## K085D102: a Jak2-derived peptide from the αD region, SEQ ID NO:143 (GLRDYLQKHKERI), N-myristylated, C-amidated (Myristoyl-GLRDYLQKHKERI-NH2; SMILES CCCCCCCCCCCCCC(=O)NCC(=O)N[C@@H](CC(C)C)C(=O)N[C@@H](CCCNC(=N)N)C(=O)N[C@@H](CC(=O)O)C(=O)N[C@@H](Cc1ccc(O)cc1)C(=O)N[C@@H](CC(C)C)C(=O)N[C@@H](CCC(N)=O)C(=O)N[C@@H](CCCCN)C(=O)N[C@@H](Cc1c[nH]cn1)C(=O)N[C@@H](CCCCN)C(=O)N[C@@H](CCC(=O)O)C(=O)N[C@@H](CCCNC(=N)N)C(=O)N[C@H](C(N)=O)[C@@H](C)CC)
B16 melanoma cells
  Melanogenesis induction: lowest concentration showing dose response: 0.15 µM
[1]; [4]
  % change in body wt. (relative to day 0), treatment day 1: 94%
  Food Intake (g/mouse/day), treatment day 1: 0.24 g/mouse/day
[1]; [5]
  % change in body wt. (relative to day 0), treatment day 2: 95%
  Food Intake (g/mouse/day), treatment day 2: 1.43 g/mouse/day
[1]; baseline before treatment
  Food Intake (g/mouse/day), baseline: 3.16 g/mouse/day
[1]; day 0 (reference)
  % change in body wt. (relative to day 0), day 0: 100%
[1]; [6]
  % change in body wt. (relative to day 0), recovery: 97%
  Food Intake (g/mouse/day), recovery: 3.62 g/mouse/day

## K086D101: Jak3 αD region peptide, SEQ ID NO:145 (GMEYLPSGSLRDFLQRHRAL), N-myristylated, C-amidated (Myristoyl-GMEYLPSGSLRDFLQRHRAL-NH2; SMILES CCCCCCCCCCCCCC(=O)NCC(=O)N[C@@H](CCSC)C(=O)N[C@@H](CCC(=O)O)C(=O)N[C@@H](Cc1ccc(O)cc1)C(=O)N[C@@H](CC(C)C)C(=O)N1CCC[C@H]1C(=O)N[C@@H](CO)C(=O)NCC(=O)N[C@@H](CO)C(=O)N[C@@H](CC(C)C)C(=O)N[C@@H](CCCNC(=N)N)C(=O)N[C@@H](CC(=O)O)C(=O)N[C@@H](Cc1ccccc1)C(=O)N[C@@H](CC(C)C)C(=O)N[C@@H](CCC(N)=O)C(=O)N[C@@H](CCCNC(=N)N)C(=O)N[C@@H](Cc1c[nH]cn1)C(=O)N[C@@H](CCCNC(=N)N)C(=O)N[C@@H](C)C(=O)N[C@@H](CC(C)C)C(N)=O)
[2]
  S.I.* (μM) for HEC Cells: 0.6 µM
[3]
  S.I.* (μM) for PC3 Cells: 0.6 µM

## K086D102: Jak3 peptide derived from the αD region, SEQ ID NO:146 (GMEYLPSGSLRDFLQRHRARL), N-myristylated, C-amidated (Myristoyl-GMEYLPSGSLRDFLQRHRARL-NH2; SMILES CCCCCCCCCCCCCC(=O)NCC(=O)N[C@@H](CCSC)C(=O)N[C@@H](CCC(=O)O)C(=O)N[C@@H](Cc1ccc(O)cc1)C(=O)N[C@@H](CC(C)C)C(=O)N1CCC[C@H]1C(=O)N[C@@H](CO)C(=O)NCC(=O)N[C@@H](CO)C(=O)N[C@@H](CC(C)C)C(=O)N[C@@H](CCCNC(=N)N)C(=O)N[C@@H](CC(=O)O)C(=O)N[C@@H](Cc1ccccc1)C(=O)N[C@@H](CC(C)C)C(=O)N[C@@H](CCC(N)=O)C(=O)N[C@@H](CCCNC(=N)N)C(=O)N[C@@H](Cc1c[nH]cn1)C(=O)N[C@@H](CCCNC(=N)N)C(=O)N[C@@H](C)C(=O)N[C@@H](CCCNC(=N)N)C(=O)N[C@@H](CC(C)C)C(N)=O)
CD4+ T cells
  IFNγ production (Th1 conversion): increase
  IL-4 production (Th1 conversion): decrease

## K094D101: peptide derived from the αD region of IRK; SEQ ID NO:137 by list order, possibly SEQ ID NO:136 (myristylated) (Myristoyl-AQNNPGRPPPTL-NH2; SMILES CCCCCCCCCCCCCC(=O)N[C@@H](C)C(=O)N[C@@H](CCC(N)=O)C(=O)N[C@@H](CC(N)=O)C(=O)N[C@@H](CC(N)=O)C(=O)N1CCC[C@H]1C(=O)NCC(=O)N[C@@H](CCCNC(=N)N)C(=O)N1CCC[C@H]1C(=O)N1CCC[C@H]1C(=O)N1CCC[C@H]1C(=O)N[C@H](C(=O)N[C@@H](CC(C)C)C(N)=O)[C@@H](C)O)
Fresh adipocytes; insulin 10 μU/ml
  Glucose uptake, % of Control, +Insulin 10 μU/ml: 67&
  Glucose-Update: Mean DPM ± SEM of Quadruplicates, +Insulin 10 μU/ml: 1,210 ± 110 DPM
Fresh adipocytes; without insulin
  Glucose uptake, % of Control, −Insulin: 67%
  Glucose-Update: Mean DPM ± SEM of Quadruplicates, −Insulin: 775 ± 72 DPM
